In patent US20230159453A1 (COCRYSTAL PHARMA, INC., priority 2020, published 2023) one finds IC50 data, which are given here for 25 compounds.

The assay addresses SARS2 protease (Severe acute respiratory syndrome coronavirus 2, UniProt P0DTD1). Description: SARS-CoV-2 protease inhibition assay (SARS2 FRET protease assay). The conditions noted are these: SARS-CoV-2 protease 25 nM, FRET, peptide substrate 1.3 μM, 30 minutes at 30° C., compounds 20 μM to 1.0 nM; read-out: IC50. The class given is biochemical.
For the compound `CC(C)(C)C(=O)N1CCC2(CC1)CC(CC(C=O)NC(=O)[C@H](CC1CCCCC1)NC(=O)OCc1cccc(Cl)c1)C(=O)N2` (stereo partly drawn) [Compound C212, 3-Chlorobenzyl ((2S)-3-cyclohexyl-1-oxo-1-((1-oxo-3-(2-oxo-8-pivaloyl-1,8-diazaspiro[4.5]decan-3-yl)propan-2-yl)amino)propan-2-yl)carbamate], the IC50 is 194 nM.

As to `O=C(N[C@@H](CC1CCCCC1)C(=O)N[C@@H](C[C@@H]1CCNC1=O)C(=O)C(=O)NC1CC1)OC(c1cccc(Cl)c1)C1(c2cccc(Cl)c2)CC1` (stereo partly shown) [Compound C213], the IC50 was found to be 257 nM.

As for `COc1cccc2[nH]c(C(=O)N[C@@H](CC(C)C)C(=O)NC(C=O)CC3CC4(CCCCC4)NC3=O)cc12` (stereo partly drawn) [Compound C214, 4-Methoxy-N-((2S)-4-methyl-1-oxo-1-((1-oxo-3-(2-oxo-1-azaspiro[4.5]decan-3-yl)propan-2-yl)amino)pentan-2-yl)-1H-indole-2-carboxamide], the IC50 is 11 nM.

Take `CC(C)C(OC(=O)N[C@@H](CC1CCCCC1)C(=O)N[C@@H](C[C@@H]1CCNC1=O)C(=O)C(N)=O)c1ccccc1` (stereo partly drawn) [Compound C216, 2-Methyl-1-phenylpropyl ((S)-1-(((S)-4-amino-3,4-dioxo-1-((S)-2-oxopyrrolidin-3-yl)butan-2-yl)amino)-3-cyclohexyl-1-oxopropan-2-yl)carbamate]: the IC50 came out at 3100 nM.

`CC1(C)CC(CC(NC(=O)[C@H](CC2CCCCC2)NC(=O)OC(Cc2cccc(Cl)c2)c2ccccc2)C(=O)C(N)=O)C(=O)N1` (stereo partly drawn) [Compound C217, 2-(3-Chlorophenyl)-1-phenylethyl ((2S)-1-((4-amino-1-(5,5-dimethyl-2-oxopyrrolidin-3-yl)-3,4-dioxobutan-2-yl)amino)-3-cyclohexyl-1-oxopropan-2-yl) carbamate]: the IC50 turned out to be 3990 nM.

As to `CC(C)C[C@H](NC(=O)OC(c1ccccc1)C(C)(C)c1cccc(Cl)c1)C(=O)NC(CC1CC(C)(C)NC1=O)C(=O)C(N)=O` (stereo partly drawn) [Compound C218, 2-(3-Chlorophenyl)-2-methyl-1-phenylpropyl ((2S)-1-((4-amino-1-(5,5-dimethyl-2-oxopyrrolidin-3-yl)-3,4-dioxobutan-2-yl)amino)-4-methyl-1-oxopentan-2-yl)carbamate], the IC50 stood at 1850 nM.

Take `CC1(C)CC(CC(NC(=O)[C@H](CC2CCCCC2)NC(=O)OC(c2cccc(F)c2)C(C)(C)c2cccc(Cl)c2)C(=O)C(N)=O)C(=O)N1` (stereo partly drawn) [Compound C220, 2-(3-Chlorophenyl)-1-(3-fluorophenyl)-2-methylpropyl ((2S)-1-((4-amino-1-(5,5-dimethyl-2-oxopyrrolidin-3-yl)-3,4-dioxobutan-2-yl)amino)-3-cyclohexyl-1-oxopropan-2-yl)carbamate]: the IC50 is 1830 nM.

Turning to `CC1(C)CC(CC(C=O)NC(=O)[C@H](CC2CCCCC2)NC(=O)OC(c2cccc(F)c2)C(C)(C)c2cccc(Cl)c2)C(=O)N1` (stereo partly drawn) [Compound C222, 2-(3-Chlorophenyl)-1-(3-fluorophenyl)-2-methylpropyl ((2S)-3-cyclohexyl-1-((1-(5,5-dimethyl-2-oxopyrrolidin-3-yl)-3-oxopropan-2-yl)amino)-1-oxopropan-2-yl)carbamate], the IC50 was found to be 235 nM.

As for `O=CC(CC1CC2(CCCCC2)NC1=O)NC(=O)[C@H](CC1CCCCC1)NC(=O)OC1CCCC1Cc1cccc(Cl)c1` (stereo partly drawn) [Compound C223, 2-(3-Chlorobenzyl)cyclopentyl ((2S)-3-cyclohexyl-1-oxo-1-((1-oxo-3-(2-oxo-1-azaspiro[4.5]decan-3-yl)propan-2-yl)amino)propan-2-yl)carbamate], the IC50 worked out at 781 nM.

Take `O=C[C@H](C[C@@H]1CCNC1=O)NC(=O)[C@H](CC1CCCCC1)NC(=O)O[C@H]1CCC[C@H]1Cc1cccc(Cl)c1` [Compound C224, (1S,2S)-2-(3-Chlorobenzyl) cyclopentyl ((S)-3-cyclohexyl-1-oxo-1-(((S)-1-oxo-3-((S)-2-oxopyrrolidin-3-yl)propan-2-yl)amino)propan-2-yl) carbamate]: the IC50 came to 183 nM.

With `O=CC(CC1CC2(CCOCC2)NC1=O)NC(=O)[C@H](CC1CCCCC1)NC(=O)OC1CCCC1Cc1cccc(Cl)c1` (stereo partly drawn) [Compound C225, 2-(3-chlorobenzyl)cyclopentyl ((2S)-3-cyclohexyl-1-oxo-1-((1-oxo-3-(2-oxo-8-oxa-1-azaspiro[4.5]decan-3-yl)propan-2-yl)amino)propan-2-yl)carbamate], the IC50 was determined as 1010 nM.

With `CC(C)C[C@H](NC(=O)OC(c1ccc(Cl)cc1)C(C)(C)c1cccc(Cl)c1)C(=O)N[C@@H](C[C@@H]1CCNC1=O)C(=O)C(=O)NC1CC1` (stereo partly drawn) [Compound C226, 2-(3-chlorophenyl)-1-(4-chlorophenyl)-2-methylpropyl ((S)-1-(((S)-4-(cyclopropylamino)-3,4-dioxo-1-((S)-2-oxopyrrolidin-3-yl)butan-2-yl)amino)-4-methyl-1-oxopentan-2-yl)carbamate], the IC50 was found to be 57 nM.

As to `COc1cccc2[nH]c(C(=O)N[C@@H](CC(C)C)C(=O)NC(CC3CC4(CCCCC4)NC3=O)C(=O)CCl)cc12` (stereo partly drawn) [Compound C227, N-((2S)-1-((4-chloro-3-oxo-1-(2-oxo-1-azaspiro[4.5]decan-3-yl)butan-2-yl)amino)-4-methyl-1-oxopentan-2-yl)-4-methoxy-1H-indole-2-carboxamide], the IC50 was 59 nM.

Turning to `O=C(O)C(=O)C(CC1CC2(CCCCC2)NC1=O)NC(=O)[C@H](CC1CCCCC1)NC(=O)c1cc2ccccc2[nH]1` (stereo partly drawn) [Compound C228, 3-((S)-3-Cyclohexyl-2-(1H-indole-2-carboxamido)propanamido)-2-oxo-4-(2-oxo-1-azaspiro[4.5]decan-3-yl)butanoic acid], the IC50 amounted to 120 nM.

As for `O=CC(CC1CC2(CCC2)NC1=O)NC(=O)[C@H](CC1CCCCC1)NC(=O)OCc1cccc(Cl)c1` (stereo partly drawn) [Compound C229, 3-Chlorobenzyl ((2S)-3-cyclohexyl-1-oxo-1-((1-oxo-3-(6-oxo-5-azaspiro[3.4]octan-7-yl)propan-2-yl)amino)propan-2-yl)carbamate], the half-inhibitory concentration (IC50) was found to be 0.8 nM.

Regarding `CC(C)C[C@H](NC(=O)OC(Cc1ccccc1)C(C)C)C(=O)N[C@H](C=O)C[C@@H]1CCNC1=O` (stereo partly drawn) [Compound C230, 3-Methyl-1-phenylbutan-2-yl ((S)-4-methyl-1-oxo-1-(((S)-1-oxo-3-((S)-2-oxopyrrolidin-3-yl)propan-2-yl)amino)pentan-2-yl)carbamate], the IC50 was 70 nM.

With `CC(C)(C)C(OC(=O)N[C@@H](CC1CCCCC1)C(=O)N[C@@H](C[C@@H]1CCNC1=O)C(=O)C(N)=O)c1ccccc1` (stereo partly drawn) [Compound C231, 2,2-Dimethyl-1-phenylpropyl ((S)-1-(((S)-4-amino-3,4-dioxo-1-((S)-2-oxopyrrolidin-3-yl)butan-2-yl)amino)-3-cyclohexyl-1-oxopropan-2-yl) carbamate], the IC50 turned out to be 1800 nM.

With `CCOC(=O)/C=C/[C@H](C[C@@H]1CCNC1=O)NC(=O)[C@H](CC(C)C)NC(=O)OC(Cc1ccccc1)c1ccccc1` (stereo partly drawn) [Compound C232, Ethyl (4S, E)-4-((2S)-2-(((1,2-diphenylethoxy)carbonyl)amino)-4-methylpentanamido)-5-((S)-2-oxopyrrolidin-3-yl) pent-2-enoate], the IC50 was 15100 nM.

`COc1cccc2[nH]c(C(=O)N[C@@H](CC(C)C)C(=O)NC(CC3CC4(CCCCC4)NC3=O)C(=O)CO)cc12` (stereo partly drawn) [Compound C233, N-((2S)-1-((4-hydroxy-3-oxo-1-(2-oxo-1-azaspiro[4.5]decan-3-yl)butan-2-yl)amino)-4-methyl-1-oxopentan-2-yl)-4-methoxy-1H-indole-2-carboxamide]: the IC50 came to 20 nM.

As to `COc1cccc2[nH]c(C(=O)N[C@@H](CC(C)C)C(=O)NC(CC3CC4(CCCCC4)NC3=O)C(=O)C(=O)NC3CC3)cc12` (stereo partly drawn) [Compound C234, N-((2S)-1-((4-(cyclopropylamino)-3,4-dioxo-1-(2-oxo-1-azaspiro[4.5]decan-3-yl)butan-2-yl)amino)-4-methyl-1-oxopentan-2-yl)-4-methoxy-1H-indole-2-carboxamide], the IC50 came to 0.8 nM.

In the case of `CC(C)(c1cccc(Cl)c1)C(OC(=O)N[C@@H](CC1CCCCC1)C(=O)N[C@@H](C[C@@H]1CCNC1=O)C(=O)C(=O)O)c1ccc2ccccc2c1` (stereo partly drawn) [Compound C235, (3S)-3-((2S)-2-(((2-(3-Chlorophenyl)-2-methyl-1-(naphthalen-2-yl)propoxy)carbonyl)amino)-3-cyclohexylpropanamido)-2-oxo-4-((S)-2-oxopyrrolidin-3-yl)butanoic acid], the IC50 came out at 71 nM.

Take `CC(C)C[C@H](NC(=O)OC(c1ccccc1)C(C)(C)c1cccc(Cl)c1)C(=O)N[C@@H](C[C@@H]1CCNC1=O)C(=O)CO` (stereo partly drawn) [Compound C236, 2-(3-Chlorophenyl)-2-methyl-1-phenylpropyl ((S)-1-(((S)-4-hydroxy-3-oxo-1-((S)-2-oxopyrrolidin-3-yl)butan-2-yl)amino)-4-methyl-1-oxopentan-2-yl)carbamate]: the half-inhibitory concentration (IC50) was determined as 271 nM.

Turning to `CC(C)C[C@H](NC(=O)OC(Cc1ccccc1)C1CCCCC1)C(=O)N[C@H](C=O)C[C@@H]1CCNC1=O` (stereo partly drawn) [Compound C237, 1-Cyclohexyl-2-phenylethyl ((S)-4-methyl-1-oxo-1-(((S)-1-oxo-3-((S)-2-oxopyrrolidin-3-yl)propan-2-yl)amino)pentan-2-yl)carbamate], the IC50 was found to be 3 nM.

`CC(C)C[C@H](NC(=O)OC(c1ccc(F)cc1)C(C)(C)c1cccc(Cl)c1)C(=O)N[C@H](C=O)C[C@@H]1CCNC1=O` (stereo partly drawn) [Compound C238, 2-(3-chlorophenyl)-1-(4-fluorophenyl)-2-methylpropyl ((S)-4-methyl-1-oxo-1-(((S)-1-oxo-3-((S)-2-oxopyrrolidin-3-yl)propan-2-yl)amino)pentan-2-yl)carbamate]: the IC50 was determined as 0.1 nM.

As to `CC(C)C[C@H](NC(=O)OC1CCCC1Cc1cccc(Cl)c1)C(=O)N[C@@H](C[C@@H]1CCNC1=O)C(=O)NS(=O)(=O)C1CC1` (stereo partly drawn) [Compound C239, 2-(3-Chlorobenzyl) cyclopentyl ((S)-1-(((S)-1-(cyclopropanesulfonamido)-1-oxo-3-((S)-2-oxopyrrolidin-3-yl)propan-2-yl)amino)-4-methyl-1-oxopentan-2-yl) carbamate], the half-maximal inhibitory concentration (IC50) is greater than 20000 nM.

Usually IC50 stands for the concentration that gives 50% inhibition.
